Laboratory results taken from patent US7417043B2, “Modulators of dopamine neurotransmission” (NeuroSearch Sweden AB, priority 1999, dated 2008).
Structures can show the parent of a compound that is named as a salt.

Columns and labels:
[1] = tested on: 3,4-dihydroxyphenylacetic acid in the striatum; test: In vivo test: neurochemistry, DOPAC in brain tissue; parameters: species or system rat; conditions: for 3,4-dihydroxyphenylacetic acid in the striatum: rat
From the text: (§1) In vivo Test: Neurochemistry
(§2) After the behavioral activity sessions the rats were decapitated and their brains rapidly taken out and put on an ice-cold petri-dish. The limbic forebrain, the striatum, the frontal cortex and the remaining hemispheral parts of each rat were dissected and frozen. Each brain part was subsequently analyzed with respect to its content of monoamines and their metabolites. The monoaminergic indices analyzed were dopamine (DA), 3,4-dihydroxyphenylacetic acid (DOPAC), homovanillic acid (HVA), 3-methoxytyramine (3-MT), serotonin (5-HT), 5-hydroxyindole acetic acid ([…]), and noradrenaline (NA).

non-pre-treated rat = test: In vivo test: behavior, motility meter, non-pre-treated rats; conditions: for behavioral (motor) activity: 60 min session
serotonin (5-HT) = test: In vivo test: neurochemistry, serotonin in brain tissue; conditions: rat, 50 μmol/kg s.c.
From the text: as §1
as §2, with “(NA). All monoaminergic indices in the dissected tissue were analyzed by means of HPLC with electrochemical detection as described by Svensson K, et al., 1986, Naunynschmiedeberg's Arch Pharmacol 334: 234-245 and references cited therein.” for “(NA).”

[2] = tested on: 5-hydroxyindoleacetic acid in the striatum; test: In vivo test: neurochemistry, 5-hydroxyindoleacetic acid in brain tissue; conditions: rat; for 5-hydroxyindoleacetic acid in the striatum: 50 μmol/kg s.c.
From the text: as §1
as §2, with “(NA). All monoaminergic indices in the dissected tissue were analyzed by means of HPLC with electrochemical detection as described by Svensson K, et al., 1986, Naunynschmiedeberg's Arch Pharmacol 334: 234-245 and references cited therein.” for “(NA).”

5-HT1A receptor = molecular target: T1, 5-HT1A receptor (Homo sapiens, UniProt P08908); conditions: reported in WO 93/00313; cited from earlier work
T1 sequence (P08908 1-422): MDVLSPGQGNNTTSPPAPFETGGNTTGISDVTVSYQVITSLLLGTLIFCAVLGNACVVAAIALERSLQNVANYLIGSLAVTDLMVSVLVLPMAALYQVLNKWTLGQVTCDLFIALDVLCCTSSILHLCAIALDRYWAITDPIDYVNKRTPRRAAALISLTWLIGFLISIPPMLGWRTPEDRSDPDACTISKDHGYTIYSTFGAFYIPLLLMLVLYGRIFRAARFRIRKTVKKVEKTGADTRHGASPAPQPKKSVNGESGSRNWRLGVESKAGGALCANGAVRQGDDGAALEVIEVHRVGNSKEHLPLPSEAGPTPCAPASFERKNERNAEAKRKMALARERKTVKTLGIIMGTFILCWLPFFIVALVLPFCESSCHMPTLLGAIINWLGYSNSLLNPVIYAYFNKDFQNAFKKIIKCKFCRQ

[3] = tested on: serotonin behavioral syndrome; test: Serotonin behavioral syndrome; type: in vivo; conditions: rat
[4] = tested on: rats pre-treated with d-amphetamine; test: In vivo test: behavior, d-amphetamine induced hyperactivity
[5] = tested on: rats pre-treated with dizolcipine (Mk-801); conditions: Mk-801 0,7 mg/kg i.p.; test compound 50 μmol/kg sc
sigma receptor = conditions: 10 μmol/L, rat brain membranes
habituated rats = conditions: animals habituated to the motilitymeter box, 50 μmol/kg s.c.
[6] = non-pre-treated rat, 50 μmol/kg s.c.
[7] = non-pre-treated rat, 33 μmol/kg (s.c.)

CCCN1CCC(c2cccc(OS(C)(=O)=O)c2)CC1 [Example 14, Methanesulfonic acid 3-(1-propyl-piperidin-4-yl)-phenyl ester]
3,4-dihydroxyphenylacetic acid in the striatum ([1]; 50 μmol/kg s.c.): 3208±236 ng/g tissue
behavioral activity (non-pre-treated rat; rat, 50 μmol/kg s.c., 30 min session): 2126±240 cm/30 min

CCCN1CCN(c2cccc(C(C)=O)c2)CC1 (as salt: oxalate)
melting point: 119 °C

FC(F)(F)c1cccc(N2CCN(CCc3ccccc3)CC2)c1 [1-phenethyl-4-(3-trifluoromethyl-phenyl)-piperazine]
3,4-dihydroxyphenylacetic acid in the striatum ([1]; 50 μmol/kg s.c.): 1406±77 ng/g tissue
serotonin (5-HT) (serotonin (5-HT)): 282±6 ng/g tissue
5-hydroxyindoleacetic acid in the striatum [2]: 289±16 ng/g tissue
IC50 (5-HT1A receptor): 20.3 nM

CCCN1CCN(c2ccccc2OC)CC1 [1-(2-methoxy-phenyl)-4-propyl piperazine]
3,4-dihydroxyphenylacetic acid in the striatum ([1]; 50 μmol/kg s.c.): 3836±65 ng/g tissue
behavioral (motor) activity (non-pre-treated rat; [6]): 67±34 cm/60 min

CCCN1CCC(c2cccc(C#N)c2)CC1 (as salt: fumarate)
melting point: 122 °C

CS(=O)(=O)c1cccc(C2CCN(Cc3ccccc3)CC2)c1 [1-benzyl-4-(3-methanesulfonyl-phenyl)-piperidine]
serotonin behavioral syndrome [3]: induces the serotonin behavioral syndrome
serotonin (5-HT) (serotonin (5-HT)): 345±18 ng/g tissue
5-hydroxyindoleacetic acid in the striatum [2]: 487±7 ng/g tissue

CCCN1CCC(c2ccccc2)CC1 [4-phenyl-1-propyl-piperidine]
behavioral activity in the d-amphetamine stimulated ([4]; d-amphetamine pre-treated, test compound 33 μmol/kg): 13764±2919 cm/60 min
3,4-dihydroxyphenylacetic acid in the striatum ([1]; 33 μmol/kg s.c.): 1190±70 ng/g tissue
behavioral activity (non-pre-treated rat; [7]): 2553±471 cm/60 min

CCCN1CCC(c2cccc(C(F)(F)F)c2)CC1 (as salt: HCl)
melting point: 195 °C

CCCN1CCC(c2ccc(S(C)(=O)=O)cc2)CC1 [4-(4-methanesulphonyl-phenyl)-1-propyl piperidine]
3,4-dihydroxyphenylacetic acid in the striatum ([1]; 50 μmol/kg s.c.): 928±51 ng/g tissue

CCCN1CCN(c2cccc(C#N)c2)CC1 [3-(4-Propyl-piperazine-1-yl)-benzonitrile]
3,4-dihydroxyphenylacetic acid in the striatum ([1]; 100 μmol/kg s.c.): 4498±243 ng/g tissue
behavioral activity (non-pre-treated rat; rat, 100 μmol/kg s.c.): 634±266 cm/60 min
5-hydroxyindole acetic acid ([2]; 100 μmol/kg s.c.): 484±26 ng/g tissue

CCCN1CCN(c2ccccc2)CC1 [1-phenyl-4-propyl-piperazine]
behavioral activity (non-pre-treated rat; [7]): 1923±204 cm/60 min

Br.CCCN1CCC(c2cccc(O)c2)CC1 [preparation 14, 3-(1-Propyl-piperidin-4-yl)-phenol×HBr]
3,4-dihydroxyphenylacetic acid in the striatum ([1]; 50 μmol/kg s.c.): 1169±42 ng/g tissue

CCCN1CCN(c2cccc(S(C)(=O)=O)c2)CC1 (as salt: HCl)
melting point: 233 °C

CCN1CCC(c2cccc(S(C)(=O)=O)c2)CC1 (as salt: HCl) [Example 8, 4-(3-Methanesulfonyl-phenyl)-1-ethyl-piperidine]
melting point: 158 °C

CC(C)N1CCC(c2cccc(S(C)(=O)=O)c2)CC1 (as salt: HCl) [Example 9, 1-Isopropyl-4-(3-methanesulfonyl-phenyl)-piperidine]
melting point: 220 °C

CCCCN1CCC(c2cccc(C(F)(F)F)c2)CC1 (as salt: HCl) [Example 5, 1-Butyl-4-(3-trifluoromethyl-phenyl)piperidine]
melting point: 222 °C

CS(=O)(=O)c1cccc(N2CCN(CCO)CC2)c1 [2-[4-(3-methanesulfonyl-phenyl)piperazin-1-yl]-ethanol]
3,4-dihydroxyphenylacetic acid in the striatum ([1]; 33 μmol/kg s.c.): 1239±162 ng/g tissue
behavioral activity (non-pre-treated rat; [7]): 3782±962 cm/60 min

CCCN1CCN(c2cccc(C(F)(F)F)c2)CC1 [1-propyl-4-(3-triflouro-methyl-phenyl) piperazine]
3,4-dihydroxyphenylacetic acid in the striatum ([1]; 50 μmol/kg s.c.): 3358±162 ng/g tissue
behavioral (motor) activity (non-pre-treated rat; [6]): 271±137 cm/60 min

Oc1cccc(C2CCN(Cc3ccccc3)CC2)c1 [3-(1-Benzyl-piperidin-4-yl)-phenol, 3-(1-benzyl-piperidin-4-yl)-phenol]
serotonin in the limbic region (5-HT) (serotonin (5-HT); limbic region): 677±20 ng/g tissue
5-hydroxyindoleacetic acid in the striatum [2]: 492±26 ng/g tissue

CCCN1CCC(c2cccc(S(C)(=O)=O)c2)CC1 [Example 6, 4-(3-Methanesulfonyl-phenyl)-1-propyl-piperidine]
behavioral activation induced by dizolcipine (Mk-801) [5]: 18197±1389 cm/60 min
d-Amphetamine hyperactivity ([4]; d-amphetamine 1.5 mg/kg s.c., test compound 50 μmol/kg s.c.): 1839±344 cm/60 min
inhibition of [3H]-DTG binding (sigma receptor): < 50%
4-dihydroxyphenylacetic acid in the striatum ([1]; habituated animals, 50 μmol/kg s.c.): 2074±144 ng/g tissue
3,4-dihydroxyphenylacetic acid in the striatum ([1]; 50 μmol/kg s.c.): 1703±19 ng/g tissue
behavioral (motor) activity (non-pre-treated rat; [6]): 2879±398 cm/60 min
behavioral activity (habituated rats): 1243±72 cm/60 min

CC(C)CN1CCC(c2cccc(S(C)(=O)=O)c2)CC1 (as salt: HCl) [Example 11, 1-Isobutyl-4-(3-methanesulfonyl-phenyl)-piperidine]
melting point: 212 °C

CCCN1CCN(c2cccc(OS(C)(=O)=O)c2)CC1 (as salt: fumarate) [Example 17, Methanesulfonic acid 3-(4-propyl-piperazin-1-yl)-phenyl ester]
melting point: 143 to 144 °C
